Measurements taken from US6861417B2, “Pyridin-4-YL or pyrimidin-4-YL substituted pyrazines” (SmithKline Beecham Corporation, priority 1998, dated 2005).
pIC50: −log10 of the molar value.

Target: T1, CSBP/p38 (Homo sapiens, UniProt Q16539)
T1 construct: made in house; host or cells: yeast
Experiment: CSBP Kinase Assay (transfer of 32P from ATP to EGFR-derived peptide T669)
Type: biochemical
Procedure: This assay measures the CSBP-catalyzed transfer of ^32P from [a-^32P]ATP to threonine residue in an epidermal growth factor receptor (EGFR)-derived peptide (T669) with the following sequence: […] (residues 661-681). (See Gallagher et al., “Regulation of Stress Induced Cytokine Production by Pyridinyl Imidazoles: Inhibition of CSPB Kinase”, BioOrganic & Medicinal Chemistry, 1997, 5, 49-64).
Reactions were carried in round bottom 96 well plate (from Corning) in a […]. Reactions contained (in final concentration): 25 mM Hepes, pH7.5; 10 mM MgCl2; 0.17 mM ATP (the Km[ATP] of p38 (see Lee et al., Nature […], n72 pg. 639-746 (December 1994) and Young et al., J. Biol. Chem. 272, n18 pg. 12116-12121 (May 1997)); 2.5 uCi of [g-32P]ATP; 0.2 mM sodium orthovanadate; 1 mM DTT; 0.1% BSA; 10% glycerol; 0.67 mM T669 peptide; and 2-4 nM of yeast-expressed, activated and purified p38. Reactions were initiated by the addition of [gamma-32P]Mg/ATP, and incubated for 25 min at 37 C. Inhibitors (dissolved in DMSO) were incubated with the reaction mixture on ice for 30 minutes prior to adding the 32P-ATP. Final DMSO concentration was 0.16%. […] Filters were washed with 75 mM phosphoric acids, and incorporated 32P was quantified using beta scintillation counter. […]

T1 sequence (Q16539 whole entry): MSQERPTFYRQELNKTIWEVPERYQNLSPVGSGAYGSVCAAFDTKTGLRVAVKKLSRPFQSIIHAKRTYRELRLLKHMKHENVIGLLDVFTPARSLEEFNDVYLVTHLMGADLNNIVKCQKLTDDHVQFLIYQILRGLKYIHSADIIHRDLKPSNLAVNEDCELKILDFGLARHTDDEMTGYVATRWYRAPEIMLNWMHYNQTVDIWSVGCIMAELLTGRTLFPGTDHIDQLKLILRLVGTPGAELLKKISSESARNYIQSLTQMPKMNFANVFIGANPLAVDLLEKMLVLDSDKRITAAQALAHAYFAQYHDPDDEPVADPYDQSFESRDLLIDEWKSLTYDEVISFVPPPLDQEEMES

pIC50 (CSBP kinase assay, called "this binding assay", read-out: positive inhibitory activity, IC50)	Compound	inhibitory activity upon retesting (upon retesting, "at this micromolar amount" (IC50 of <50 uM))
> 4.30	Fc1ccc(-c2nccnc2-c2ccncc2)cc1 [Example 2, 2-(4-Fluorophenyl)-3-(pyridin-4-yl)pyrazine]	
	COc1ccc2cc(-c3nccnc3-c3ccncc3)ccc2c1 [Example 3, 2-(6-Methoxy)napthyl-2-yl-3-(4-pyridyl)pyrazine]	not found active
